Laboratory results reported in ChEMBL document CHEMBL1158333, “New diterpenes from the South African soft coral Eleutherobia aurea” (1997).

Assay: Antiinflammatory activity in rabbit neutrophils assessed as inhibition of fMLP-induced superoxide radical anion generation at 20 ug/mL
Assay type: functional
Settings: Oryctolagus cuniculus, Neutrophil

Row | SMILES | inhibition at 20 µg/mL [%]
1 | C=C(C)C(CC(OC(C)=O)C1=CO[C@H](OC(C)=O)[C@H]2C(=C)CC/C=C(\C)CC[C@H]12)OC(C)=O (stereo partly drawn) [ZAHAVIN A] | > 90
2 | C=C1CC/C=C(\C)CC[C@@H]2C(C(CC=C(C)C)OC(C)=O)=CO[C@H](OC(C)=O)[C@@H]12 (stereo partly drawn) | > 90
3 | C=C(C)C(CC(OC(C)=O)C1=CO[C@H](OC(C)=O)[C@H]2C(=C)CC[C@@H]3O[C@@]3(C)CC[C@H]12)OC(C)=O (stereo partly drawn) [7,8-EPOXYZAHAVIN A] | > 90
